The target in one assay is T1, PRMT5-MEP50 enzyme (Homo sapiens, UniProt O14744).
T1 construct: One virus expresses full length human PRMT5 with Flag-tag at N-terminus; Flag (N); purchased Charles River (Argenta); host or cells: insect cells (Sf9), baculovirus co-infection
As to the kind of experiment: In vitro assay 1b: high throughput mass spectrometer assay of SAH formation, 1.25 nM enzyme, 120 min. In kind it is biochemical. The following applies: averaged values; PRMT5-MEP50, 1.25 nM enzyme, 120 min; read-out: pIC50 Assay 1b (converted). An excerpt: Experimental Procedures In Vitro Assay (Assay 1a and 1b)
PRMT5-MEP50 enzyme was purchased from Charles River (Argenta). The enzyme complex was produced in insect cells (Sf9) infected simultaneously with two baculoviruses. One virus expresses full length human PRMT5 with Flag-tag at N-terminus, the second virus expresses full length MEP50 with His6-TEV cleavage at N-terminus. The protein was affinity purified using anti-Flag (M2) beads eluted with 3×FLAG peptide, followed by His-Select eluted with 0.5M imidazole. Eluted protein was then dialysed against tris-buffered saline (TBS) (pH 8.0) containing 20% glycerol and 3 mM dithiothreitol (DTT).
Full-length untagged human recombinant histone H2A (residues 1-130, Genbank Accession #NM_021052 MW=14.1 kDa) expressed in E. coli was purchased from Reaction Biology Corporation, Cat #HMT-11-146. Reagents used for making reaction buffer or stopping reaction were purchased including Tris base (Sigma Cat #T-1503), NaCl (Sigma Cat #RGF-3270), MgCl2 (Sigma Cat #M0250), DTTI (Invitrogen Cat #15508-013) and Formic Acid (Riedel deHaen, Cat #33015)
High Throughput Mass Spectrometer Assay
PRMT5 catalyzes the sequential methylations of the terminal nitrogen atoms on the guanidine groups of arginine residues within proteins using co-substrate S-adenosyl-L-methionine (AdoMet, SAM), forming mono-methyl (MMA), symmetric-dimethyl arginine (sDMA) and S-adenosyl-L-homocysteine (AdoHcy, SAH). The enzyme activity was determined by following the product SAH formation using high throughput mass spectrometry (Agilent Rapidfire 300 System coupled to a Sciex 4000 series QTrap® triple-quad MS/MS). The reaction buffer was 20 mM Tris-HCl, pH 8.5, 50 mM NaCl, 5 mM MgCl2 and 1 mM DTT. The reaction activity was stopped using 1% formic acid (final concentration).
The IC50 Studies were performed using eleven point dosing series made for each compound by serially diluted 1:2 in dimethyl sulfoxide (DMSO), with point 12 being a DMSO control. Compounds were first spotted to plates, and followed by addition of 2 μM SAM and 0.6 μM H2A (histone H2A) solution mixture. The same volume of enzyme solution was added to initiate the enzymatic reactions. The final concentrations of the reaction are at 1 μM SAM, 0.3 μM H2A and 10 nM enzyme (assay 1a) or 1.25 nM enzyme (assay 1b). The reaction was incubated at 30° C. for 60 minutes (min) when 10 nM enzyme was used and for 120 min when 1.25 nM enzyme was used. Subsequently, the reaction was quenched by addition of formic acid to a final concentration of 1%. The inhibitions of SAH formation in the presence of compounds were calculated as a percentage of the control relative to the uninhibited reaction as a function of inhibitor concentration. The data were fit as follows: Y=Bottom+(Top−Bottom)/(1+10^((log IC50−X)*h))
where IC50 is the inhibitor concentration (same unit as X) at 50% inhibition and h is the Hill slope. Y is percent of inhibition, X is log of compound concentration. Bottom and Top are the plateaus in same units as Y.

Assay [1] has as its system nuclear symmetric Arginine dimethylation in A549 cells. The experiment in a line: PD assay (assay 2): inhibition of nuclear symmetric Arginine dimethylation (SYM10 immunohistochemistry), 48 h. In kind it is cell-based. Conditions: Homo sapiens. The protocol: Experimental Procedure PD Assay (Assay 2)
A549 cells (ATCC, Cat #CCL-185) were cultured in Dulbecco's Modified Eagle's Medium (DMEM) (Sigma, Cat #D5796), supplemented with 10% Fetal Calf Serum (FCS) (HyClone™, Cat #SV30160.03), 100 mM Sodium Pyruvate (Sigma, Cat #S8636), 200 mM L-Glutamine (Sigma, Cat #G7513) and 50 mg/mL gentamycin (Gibco, Cat #15750-037).
Reagents used for buffers were purchased: Dulbecco's phosphate buffered saline (DPBS) without Ca/Mg (Sigma, Cat #D8537), phosphate buffered saline (PBS) 10× (Roche, Cat #11 666 789 001), Formalin solution 10% (Sigma, HT50-1-128-4L), Methanol 100% (Sigma, Cat #32213-2.5L), Triton X-100 (Acros, Cat #215680010), Bovine Serum Albumin (BSA) (Sigma, Cat #A2153), Alexa fluor 488 goat anti-rabbit antibody (Life Technologies, Cat #A11034), HCS CellMask Deep Red Stain (Life Technologies, Cat #H32721), Hoechst Stain (Life Technologies, Cat #33258), Anti-dimethyl-Arginine, sym (SYM10) antibody (Millipore, 07-412).
Immunohistochemistry Procedure
Cells were plated at 400 cells/40 μL/well in 384 well black μplates clear bottom (Perkin Elmer) and overnight incubated at 37° C., 5% CO2. […] 80 nL of the respective dilution of the compounds was added using the Labcyte POD 810 (Labcyte) reaching a final DMSO concentration of 0.2% in cell culture. After an incubation period of 48 h at 37° C. and 5% CO2, cells were fixed in 10% formalin solution for 15 min at room temperature and 20 min in ice-cold methanol, after which they were washed 3× in DPBS. Subsequently, the cells were blocked for 1 h in blocking buffer (PBS+1% BSA and 0.5% Triton X-100) and incubated overnight at 4° C. with the SYM10 antibody diluted 1/2000 in blocking buffer. The cells were washed 3× with washing buffer (PBS+0.1% Triton X-100) and incubated with the Alexa fluor 488 goat anti-rabbit antibody diluted 1/200 in blocking buffer for 1 h at room temperature. Subsequently, they were washed 3× with washing buffer and incubated for 30 min at room temperature with PBS containing a 1/5000 dilution of Hoechst Stain and a 1/5000 dilution of the HCS CellMask Deep Red Stain. After a final wash with PBS, the plates were imaged using the 10×W lens of the Opera® system (Perkin Elmer Life Sciences) using following settings (values in nm):
In the above equations, the following variable names are used: […]
In the above equations, the following controls were used for normalization: […]
Low control: minimum level of symmetrically dimethylated Arginines (cells treated with reference compound at 10 μM).
High control: maximum level of symmetrically dimethylated Arginines (DMSO treated cells).
IC50 and pIC50 (−log IC50) values were calculated using the appropriate software.
The pIC50 values in the Table below are averaged values (Co. No. means compound number; n.d. means not determined).

The mark [2] stands for this setting: A549, averaged values, PD assay, A549 cells, symmetric Arginine dimethylation, read-out: pIC50 Assay 2 (converted).

31 compounds from patent publication US11318157B2, “6-6 bicyclic aromatic ring substituted nucleoside analogues for use as PRMT5 inhibitors” (Janssen Pharmaceutica NV, priority 2015, dated 2022) can be followed below.

SMILES strings stand for the structures. Where two headings read alike, the source gives them in different places.

T1 sequence (O14744 whole entry): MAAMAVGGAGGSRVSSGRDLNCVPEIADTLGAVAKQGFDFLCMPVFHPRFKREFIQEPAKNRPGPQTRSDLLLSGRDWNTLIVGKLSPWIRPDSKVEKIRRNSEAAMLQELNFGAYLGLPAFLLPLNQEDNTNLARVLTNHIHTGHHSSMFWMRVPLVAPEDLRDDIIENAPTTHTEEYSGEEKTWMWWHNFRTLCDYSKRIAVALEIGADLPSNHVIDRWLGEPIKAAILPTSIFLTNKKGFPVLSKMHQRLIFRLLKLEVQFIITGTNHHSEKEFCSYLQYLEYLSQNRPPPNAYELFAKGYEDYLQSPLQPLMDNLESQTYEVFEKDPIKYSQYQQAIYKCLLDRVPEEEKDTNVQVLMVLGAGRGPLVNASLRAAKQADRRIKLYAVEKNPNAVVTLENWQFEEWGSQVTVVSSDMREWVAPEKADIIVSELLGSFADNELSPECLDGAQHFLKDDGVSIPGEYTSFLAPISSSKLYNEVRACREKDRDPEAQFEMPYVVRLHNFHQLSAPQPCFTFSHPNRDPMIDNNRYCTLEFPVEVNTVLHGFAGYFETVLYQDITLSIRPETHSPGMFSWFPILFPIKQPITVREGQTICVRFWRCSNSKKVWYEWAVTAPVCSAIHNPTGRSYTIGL
T1 sequence (Q9BQA1 whole entry partner): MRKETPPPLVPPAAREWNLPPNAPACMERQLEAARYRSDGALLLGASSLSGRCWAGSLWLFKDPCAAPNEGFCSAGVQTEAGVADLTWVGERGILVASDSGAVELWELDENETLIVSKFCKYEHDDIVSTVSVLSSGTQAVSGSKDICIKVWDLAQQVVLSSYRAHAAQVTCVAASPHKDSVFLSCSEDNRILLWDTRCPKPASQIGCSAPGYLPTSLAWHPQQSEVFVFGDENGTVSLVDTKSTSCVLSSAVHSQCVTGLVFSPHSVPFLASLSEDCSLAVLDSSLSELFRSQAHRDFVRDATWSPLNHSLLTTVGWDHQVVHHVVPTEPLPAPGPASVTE

On to `Nc1nc2cc(CC[C@H]3O[C@@H](n4ccc5c(N)ncnc54)[C@H](O)[C@@H]3O)ccc2cc1C(F)(F)F` [Compound 244], for which the IC50 at PRMT5-MEP50 enzyme is 3.16 nM.
In the case of `COc1ncnc2c1ccn2[C@@H]1C[C@H](CCc2ccc3ccc(NC4CC4)nc3c2)[C@@H](O)[C@H]1O` [Compound 181], the IC50 on PRMT5-MEP50 enzyme is 1.26 nM; in assay [1] (setting [2]) it was 39.8 nM.
With `Nc1nc2cc(CC[C@H]3C[C@@H](n4ccc5c(N)ncnc54)[C@H](O)[C@@H]3O)ccc2cc1C(F)(F)F` [Compound 154], the IC50 at PRMT5-MEP50 enzyme is 0.316 nM; in assay [1] (setting [2]) it was 2.51 nM.
With `COc1ncnc2c1ccn2[C@@H]1C[C@H](CCc2ccc3cc(C(F)(F)F)c(N)nc3c2)[C@@H](O)[C@H]1O` [Compound 200], the IC50 on PRMT5-MEP50 enzyme was 6.31 nM; in assay [1] (setting [2]), 1000 nM.
In the same order, the values of `CNc1ncnc2c1ccn2[C@@H]1O[C@H](CCc2ccc3cc(Cl)c(N)nc3c2)[C@@H](O)[C@H]1O` [Compound 198] are 3.98 nM and 63.1 nM.
In the same order, the values of `CNc1ccc2ccc(CC[C@H]3C[C@@H](n4ccc5c(NC)ncnc54)[C@H](O)[C@@H]3O)cc2n1` [Compound 178] are 0.794 nM and 10 nM.
Regarding `Nc1ncnc2c1ccn2[C@@H]1C[C@H](COc2ccc3cccnc3c2)[C@@H](O)[C@H]1O` [Compound 46], the IC50 was 63.1 nM at PRMT5-MEP50 enzyme and 126 nM in assay [1] (setting [2]).
In the same order, the values of `Nc1nc2cc(CC[C@H]3C[C@@H](n4ccc5cccnc54)[C@H](O)[C@@H]3O)ccc2cc1Cl` [Compound 249] are 20 nM and 501 nM.
The matching figures for `COc1ncnc2c1ccn2[C@@H]1C[C@H](CCc2ccc3ccc(NCC4CC4)nc3c2)[C@@H](O)[C@H]1O` [Compound 210]: 2.51 nM and 126 nM.
Regarding `COc1ncnc2c1ccn2[C@@H]1C[C@H](COc2ccc3cc(Cl)c(N)nc3c2)[C@@H](O)[C@H]1O` [Compound 228], the IC50 at PRMT5-MEP50 enzyme was 5.01 nM.
For `COc1ncnc2c1ccn2[C@@H]1C[C@H](CCc2ccc3cc(Cl)c(N)nc3c2)[C@@H](O)[C@H]1O` [Compound 195], the figures for the IC50 (on PRMT5-MEP50 enzyme; in assay [1] (setting [2])) were 0.501 nM and 25.1 nM, respectively.
The matching figures for `CNc1ccc2ccc(CC[C@H]3C[C@@H](n4ccc5c(OC)ncnc54)[C@H](O)[C@@H]3O)cc2n1` [Compound 180]: 1.26 nM and 39.8 nM.
For the compound `Nc1ncnc2c1ccn2[C@@H]1C[C@H](CCc2ccc3cc(F)c(NCC4CC4)nc3c2)[C@@H](O)[C@H]1O` [Compound 155], the IC50 was 158 nM on PRMT5-MEP50 enzyme and 251 nM in assay [1] (setting [2]).
As to `Nc1nc2cc(CC[C@H]3C[C@@H](n4ccc5cnccc54)[C@H](O)[C@@H]3O)ccc2cc1Cl` [Compound 247], the IC50 on PRMT5-MEP50 enzyme is 0.794 nM.
As for `Nc1nc2cc(CC[C@H]3C[C@@H](n4ccc5c(N)ncnc54)[C@H](O)[C@@H]3O)ccc2cc1F` [Compound 159], the IC50 was 0.126 nM at PRMT5-MEP50 enzyme and below 1.17 nM in assay [1] (setting [2]).
In the same order, the values of `CNc1ncnc2c1ccn2[C@@H]1C[C@H](CCc2ccc3ccc(NCC(F)(F)F)nc3c2)[C@@H](O)[C@H]1O` [Compound 162] are 7.94 nM and 158 nM.
The matching figures for `CNc1ncnc2c1ccn2[C@@H]1C[C@H](CCc2ccc3ccc(NC4CC4)nc3c2)[C@@H](O)[C@H]1O` [Compound 179]: 0.631 nM and 5.01 nM.
In the case of `CNc1ncnc2c1ccn2[C@@H]1O[C@H](CCc2ccc3cc(F)c(N)nc3c2)[C@@H](O)[C@H]1O` [Compound 229], the IC50 on PRMT5-MEP50 enzyme was 39.8 nM.
Consider `Nc1nc2cc(CC[C@H]3C[C@@H](n4ccc5c(N)ncnc54)[C@H](O)[C@@H]3O)ccc2cc1Br` [Compound 80], for which the IC50 in assay [1] (setting [2]) is 0.251 nM.
For the compound `Nc1nc2cc(CC[C@H]3O[C@@H](n4ccc5c(N)ncnc54)[C@H](O)[C@@H]3O)ccc2cc1F` [Compound 231], at PRMT5-MEP50 enzyme, the IC50 was 0.631 nM.
The same measure, in the same setting: the value for `CNc1ncnc2c1ccn2[C@@H]1C[C@H](COc2ccc3cc(Cl)c(N)nc3c2)[C@@H](O)[C@H]1O` [Compound 227] was 1.26 nM; that for `CNc1ncnc2c1ccn2[C@@H]1O[C@H](COc2ccc3cc(Br)c(N)nc3c2)[C@@H](O)[C@H]1O` [Compound 232] was 3.98 nM; that for `Nc1nc2cc(CC[C@H]3O[C@@H](n4ccc5c(N)ncnc54)[C@H](O)[C@@H]3O)ccc2cc1Br` [Compound 235] was 0.2 nM.
For the compound `COc1ncnc2c1ccn2[C@@H]1O[C@H](CCc2ccc3cc(F)c(N)nc3c2)[C@@H](O)[C@H]1O` [Compound 230], on PRMT5-MEP50 enzyme, the IC50 was 631 nM.
`CNc1ncnc2c1ccn2[C@@H]1C[C@H](COc2ccc3ccc(NCC4CC4)nc3c2)[C@@H](O)[C@H]1O` [Compound 225]: the IC50 at PRMT5-MEP50 enzyme is 6.31 nM.
Still for that read-out and setting: the value for `Nc1ncnc2c1ccn2[C@@H]1C[C@H](COc2ccc3ccc(NCC4CC4)nc3c2)[C@@H](O)[C@H]1O` [Compound 224] was below 0.2 nM.
For the compound `Nc1ccc2ccc(CC[C@H]3C[C@@H](n4ccc5c(N)ncnc54)[C@H](O)[C@@H]3O)cc2n1` [Compound 76], in assay [1] (A549, read-out: pIC50 Assay 2 (converted)), the IC50 is 0.158 nM.
Take `Nc1nc2cc(OC[C@H]3O[C@@H](n4ccc5c(O)ncnc54)[C@H](O)[C@@H]3O)ccc2cc1Br` [Compound 234]: the IC50 at PRMT5-MEP50 enzyme is 794 nM.
For the compound `Nc1nc2cc(OC[C@H]3C[C@@H](n4ccc5c(N)ncnc54)[C@H](O)[C@@H]3O)ccc2cc1Br` [Compound 236], the IC50 at PRMT5-MEP50 enzyme is below 0.2 nM.
On the same count and under the same terms, then `Nc1nc2cc(CC[C@H]3C[C@@H](n4ccc5c(N)nccc54)[C@H](O)[C@@H]3O)ccc2cc1Br` [Compound 252], with 0.631 nM.
Same read-out and setting: the value for `Nc1nc2cc(OC[C@H]3O[C@@H](n4ccc5c(N)ncnc54)[C@H](O)[C@@H]3O)ccc2cc1Br` [Compound 233] was below 0.2 nM.
